Laboratory results: ChEMBL document CHEMBL5316300, “Discovery of TP0597850: A Selective, Chemically Stable, and Slow Tight-Binding Matrix Metalloproteinase-2 Inhibitor with a Phenylbenzamide-Pentapeptide Hybrid Scaffold” (J Med Chem, 2023)

What was measured:
[1] = biological target: MMP-2/MMP-9 (Homo sapiens) (UniProt P08253+P14780); experiment: Selectivity ratio of Ki for recombinant human MMP9 to Ki for recombinant human MMP2; format: protein assay
[2] = biological target: T1, MMP-2/MMP-13 (Homo sapiens) (UniProt P08253+P45452); experiment: Selectivity ratio of Ki for recombinant human MMP13 to Ki for recombinant human MMP2; format: protein assay
T1 sequence (P08253 whole entry, looked up, other chains not shown): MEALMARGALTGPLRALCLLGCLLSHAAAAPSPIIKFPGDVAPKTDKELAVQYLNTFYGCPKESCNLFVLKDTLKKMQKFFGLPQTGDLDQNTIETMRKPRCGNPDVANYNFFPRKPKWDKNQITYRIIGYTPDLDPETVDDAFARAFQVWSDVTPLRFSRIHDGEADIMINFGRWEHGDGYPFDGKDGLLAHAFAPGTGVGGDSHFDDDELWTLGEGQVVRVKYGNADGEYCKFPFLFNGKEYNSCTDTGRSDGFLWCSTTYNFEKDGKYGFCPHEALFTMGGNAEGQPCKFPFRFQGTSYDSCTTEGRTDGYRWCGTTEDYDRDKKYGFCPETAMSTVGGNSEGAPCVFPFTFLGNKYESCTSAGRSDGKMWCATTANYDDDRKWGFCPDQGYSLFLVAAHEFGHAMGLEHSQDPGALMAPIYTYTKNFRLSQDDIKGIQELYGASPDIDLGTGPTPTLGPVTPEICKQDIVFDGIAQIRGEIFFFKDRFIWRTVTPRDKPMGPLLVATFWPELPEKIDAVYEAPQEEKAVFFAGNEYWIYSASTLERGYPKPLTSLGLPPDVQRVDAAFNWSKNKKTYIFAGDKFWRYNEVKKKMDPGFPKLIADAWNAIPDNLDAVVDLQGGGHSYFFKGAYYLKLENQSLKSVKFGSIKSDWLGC

Matrilysin = biological target: T2, Matrilysin (Homo sapiens, UniProt P09237); experiment: Inhibition of human recombinant MMP7 using MOCAc-Lys-Pro-Leu-Gly-Leu-A2pr(Dnp)-Ala-Arg-N2 as substrate preincubated for 15 mins followed by substrate addition and measured after 120 mins by fluorescence based assay
T2 sequence (P09237 whole entry): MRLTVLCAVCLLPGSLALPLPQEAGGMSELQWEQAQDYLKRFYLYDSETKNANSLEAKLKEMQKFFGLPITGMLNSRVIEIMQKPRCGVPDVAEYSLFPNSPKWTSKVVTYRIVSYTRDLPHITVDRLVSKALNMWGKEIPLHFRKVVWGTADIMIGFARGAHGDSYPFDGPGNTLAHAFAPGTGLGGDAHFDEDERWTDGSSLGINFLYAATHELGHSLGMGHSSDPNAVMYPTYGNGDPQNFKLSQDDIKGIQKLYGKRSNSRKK

[3] = biological target: T3, Macrophage metalloelastase (Homo sapiens, UniProt P39900); experiment: Inhibition of human recombinant MMP12 using MOCAc-Lys-Pro-Leu-Gly-Leu-A2pr(Dnp)-Ala-Arg-N2 as substrate preincubated for 10 to 15 mins followed by substrate addition and measured after 60 to 120 mins by fluorescence based assay; conditions: read-out: IC50
T3 sequence (P39900 whole entry): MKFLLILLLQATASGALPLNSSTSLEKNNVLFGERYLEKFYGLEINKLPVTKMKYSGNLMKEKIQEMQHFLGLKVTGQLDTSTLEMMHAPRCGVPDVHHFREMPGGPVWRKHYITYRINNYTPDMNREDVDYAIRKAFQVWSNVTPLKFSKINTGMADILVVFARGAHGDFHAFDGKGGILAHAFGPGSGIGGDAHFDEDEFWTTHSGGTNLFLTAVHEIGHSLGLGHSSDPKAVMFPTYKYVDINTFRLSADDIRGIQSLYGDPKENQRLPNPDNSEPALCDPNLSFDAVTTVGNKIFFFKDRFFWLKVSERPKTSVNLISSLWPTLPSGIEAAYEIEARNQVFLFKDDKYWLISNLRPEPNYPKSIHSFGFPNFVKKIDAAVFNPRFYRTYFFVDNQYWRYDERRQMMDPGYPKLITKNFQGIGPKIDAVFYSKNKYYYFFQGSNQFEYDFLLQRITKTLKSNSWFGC

Homo sapiens [4] = organism: Homo sapiens; experiment: Selectivity ratio of Ki for recombinant human MMP3 to Ki for recombinant human MMP2
[5] = Metabolic stability in human serum assessed as parent compound remaining measured for 4 hrs; format: ADME, cell-free; conditions: read-out: Stability
[6] = biological target: T4, 72 kDa type IV collagenase (Homo sapiens, UniProt P08253); experiment: Inhibition of human recombinant MMP2 using MOCAc-Lys-Pro-Leu-Gly-Leu-A2pr(Dnp)-Ala-Arg-N2 as substrate preincubated for 15 mins followed by substrate addition and measured after 120 mins by fluorescence based assay
Target sequence in this assay (P08253 whole entry): as the sequence (P08253 whole entry, looked up, other chains not shown) above

Neutrophil collagenase = Neutrophil collagenase (Homo sapiens, UniProt P22894); experiment: Inhibition of human recombinant MMP8 using MOCAc-Lys-Pro-Leu-Gly-Leu-A2pr(Dnp)-Ala-Arg-N2 as substrate preincubated for 15 mins followed by substrate addition and measured after 120 mins by fluorescence based assay
Chain of Neutrophil collagenase (P22894 whole entry): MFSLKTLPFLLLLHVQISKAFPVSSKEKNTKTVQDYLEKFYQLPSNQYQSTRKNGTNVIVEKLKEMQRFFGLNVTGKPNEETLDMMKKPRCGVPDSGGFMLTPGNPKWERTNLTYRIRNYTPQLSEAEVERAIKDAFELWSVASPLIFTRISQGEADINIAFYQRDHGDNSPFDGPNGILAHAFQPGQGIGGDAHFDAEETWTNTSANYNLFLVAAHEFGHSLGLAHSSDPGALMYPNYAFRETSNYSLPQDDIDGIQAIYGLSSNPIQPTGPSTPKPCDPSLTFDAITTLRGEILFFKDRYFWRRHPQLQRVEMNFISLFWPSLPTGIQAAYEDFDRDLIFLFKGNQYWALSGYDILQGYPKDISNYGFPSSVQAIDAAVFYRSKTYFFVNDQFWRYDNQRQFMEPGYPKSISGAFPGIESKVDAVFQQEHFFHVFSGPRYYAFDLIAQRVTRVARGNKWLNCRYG

[7] = biological target: T4, 72 kDa type IV collagenase; experiment: Binding affinity to human MMP2 assessed as dissociative half-life
Target sequence in this assay (P08253 110-660 limits assumed): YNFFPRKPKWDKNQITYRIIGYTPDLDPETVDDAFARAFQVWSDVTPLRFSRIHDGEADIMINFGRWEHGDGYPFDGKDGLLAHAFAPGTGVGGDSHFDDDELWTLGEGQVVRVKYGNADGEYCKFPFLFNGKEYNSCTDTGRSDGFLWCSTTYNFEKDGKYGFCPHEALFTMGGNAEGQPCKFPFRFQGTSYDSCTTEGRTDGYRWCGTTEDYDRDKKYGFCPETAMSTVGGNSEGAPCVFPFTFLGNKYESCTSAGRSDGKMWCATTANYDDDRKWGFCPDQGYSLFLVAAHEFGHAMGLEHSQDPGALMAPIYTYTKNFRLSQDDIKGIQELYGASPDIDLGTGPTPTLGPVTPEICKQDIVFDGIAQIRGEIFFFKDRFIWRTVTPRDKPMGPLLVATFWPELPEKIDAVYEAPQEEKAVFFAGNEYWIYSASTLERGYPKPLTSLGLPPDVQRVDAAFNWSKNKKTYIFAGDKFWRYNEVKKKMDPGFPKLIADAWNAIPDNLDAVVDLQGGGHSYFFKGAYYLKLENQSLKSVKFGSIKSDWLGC

[8] = biological target: T4, 72 kDa type IV collagenase; experiment: Inhibition of human recombinant MMP2 using MOCAc-Lys-Pro-Leu-Gly-Leu-A2pr(Dnp)-Ala-Arg-N2 as substrate preincubated for 5 mins followed by substrate addition and measured after 120 mins by fluorescence based assay
Target sequence in this assay (P08253 whole entry): as the sequence (P08253 whole entry, looked up, other chains not shown) above

[9] = biological target: T4, 72 kDa type IV collagenase; experiment: Inhibition of recombinant human MMP2 using MOCAc-Lys-Pro-Leu-Gly-Leu-A2pr(Dnp)-Ala-Arg-N2 as substrate preincubated for 10 to 15 mins followed by substrate addition and measured after 60 to 120 mins by fluorescence based assay
Target sequence in this assay (P08253 whole entry): as the sequence (P08253 whole entry, looked up, other chains not shown) above

Interstitial collagenase = biological target: T5, Interstitial collagenase (Homo sapiens, UniProt P03956); experiment: Inhibition of human recombinant MMP1 using MOCAc-Lys-Pro-Leu-Gly-Leu-A2pr(Dnp)-Ala-Arg-N2 as substrate preincubated for 15 mins followed by substrate addition and measured after 120 mins by fluorescence based assay
T5 sequence (P03956 whole entry): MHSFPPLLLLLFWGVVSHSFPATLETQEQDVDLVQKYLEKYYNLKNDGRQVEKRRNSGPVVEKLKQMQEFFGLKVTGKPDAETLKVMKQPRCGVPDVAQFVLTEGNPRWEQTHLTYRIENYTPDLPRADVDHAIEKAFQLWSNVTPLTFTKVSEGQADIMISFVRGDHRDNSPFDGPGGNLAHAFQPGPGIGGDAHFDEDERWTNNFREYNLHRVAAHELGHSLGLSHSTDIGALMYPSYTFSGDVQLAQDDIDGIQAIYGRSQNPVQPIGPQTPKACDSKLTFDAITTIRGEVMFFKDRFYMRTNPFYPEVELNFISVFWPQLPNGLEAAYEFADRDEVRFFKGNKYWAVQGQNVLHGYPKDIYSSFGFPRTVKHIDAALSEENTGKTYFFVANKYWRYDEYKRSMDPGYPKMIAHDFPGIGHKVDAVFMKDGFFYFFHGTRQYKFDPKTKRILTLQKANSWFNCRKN

[10] = biological target: Matrix metalloproteinase-9 (Homo sapiens, UniProt P14780); experiment: Inhibition of human recombinant MMP9 using MOCAc-Lys-Pro-Leu-Gly-Leu-A2pr(Dnp)-Ala-Arg-N2 as substrate preincubated for 15 mins followed by substrate addition and measured after 120 mins by fluorescence based assay
Chain of Matrix metalloproteinase-9 (P14780 whole entry): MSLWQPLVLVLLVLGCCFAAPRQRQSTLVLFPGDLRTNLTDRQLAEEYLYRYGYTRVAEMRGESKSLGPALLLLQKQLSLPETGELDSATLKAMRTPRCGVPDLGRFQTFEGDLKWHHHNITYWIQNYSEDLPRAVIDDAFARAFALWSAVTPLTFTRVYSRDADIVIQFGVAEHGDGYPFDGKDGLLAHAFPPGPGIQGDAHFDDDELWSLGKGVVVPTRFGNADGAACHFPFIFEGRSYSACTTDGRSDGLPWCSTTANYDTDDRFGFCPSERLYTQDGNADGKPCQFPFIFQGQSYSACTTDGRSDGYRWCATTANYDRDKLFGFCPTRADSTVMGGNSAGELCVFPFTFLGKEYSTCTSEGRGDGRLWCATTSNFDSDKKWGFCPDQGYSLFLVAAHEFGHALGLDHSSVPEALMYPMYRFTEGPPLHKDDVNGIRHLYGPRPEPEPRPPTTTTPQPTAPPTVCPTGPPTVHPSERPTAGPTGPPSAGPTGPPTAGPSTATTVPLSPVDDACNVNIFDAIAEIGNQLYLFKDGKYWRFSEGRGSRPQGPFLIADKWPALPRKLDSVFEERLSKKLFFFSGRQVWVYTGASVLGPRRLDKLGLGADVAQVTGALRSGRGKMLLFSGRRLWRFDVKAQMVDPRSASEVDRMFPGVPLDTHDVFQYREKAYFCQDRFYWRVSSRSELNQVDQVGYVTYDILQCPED

Collagenase 3 = Collagenase 3 (Homo sapiens, UniProt P45452); experiment: Inhibition of human recombinant MMP13 using MOCAc-Lys-Pro-Leu-Gly-Leu-A2pr(Dnp)-Ala-Arg-N2 as substrate preincubated for 15 mins followed by substrate addition and measured after 120 mins by fluorescence based assay
[11] = biological target: Matrix metalloproteinase-14 (Homo sapiens, UniProt P50281); experiment: Inhibition of human recombinant MMP14 using MOCAc-Lys-Pro-Leu-Gly-Leu-A2pr(Dnp)-Ala-Arg-N2 as substrate preincubated for 15 mins followed by substrate addition and measured after 120 mins by fluorescence based assay
[12] = biological target: T3, Macrophage metalloelastase; experiment: Inhibition of human recombinant MMP12 using MOCAc-Lys-Pro-Leu-Gly-Leu-A2pr(Dnp)-Ala-Arg-N2 as substrate preincubated for 15 mins followed by substrate addition and measured after 120 mins by fluorescence based assay
[13] = Chemical stability of the compound in phosphate buffer at pH 7.4 assessed as residual rate incubated for 2 weeks by HPLC analysis; format: physicochemical; conditions: read-out: Stability
[14] = Chemical stability of the compound in phosphate buffer at pH 4 assessed as residual rate incubated for 2 weeks by HPLC analysis; format: physicochemical; conditions: read-out: Stability
[15] = biological target: MMP-1/MMP-2 (Homo sapiens) (UniProt P08253+P03956); experiment: Selectivity ratio of Ki for recombinant human MMP1 to Ki for recombinant human MMP2; format: protein assay
Chain of MMP-1/MMP-2 (Homo sapiens) (P08253 whole entry, looked up, one chain of several): as the sequence (P08253 whole entry, looked up, other chains not shown) above

Homo sapiens [16] = organism: Homo sapiens; experiment: Selectivity ratio of IC50 for recombinant human MMP12 to IC50 for recombinant human MMP2
Homo sapiens [17] = organism: Homo sapiens; experiment: Selectivity ratio of Ki for recombinant human MMP8 to Ki for recombinant human MMP2
[18] = biological target: T1, MMP-2/MMP-13 (Homo sapiens); experiment: Selectivity ratio of IC50 for recombinant human MMP13 to IC50 for recombinant human MMP2; format: protein assay
[19] = biological target: MMP-2/MMP-14 (Homo sapiens) (UniProt P50281+P08253); experiment: Selectivity ratio of Ki for recombinant human MMP14 to Ki for recombinant human MMP2; format: protein assay
Stromelysin-1 = Stromelysin-1 (Homo sapiens, UniProt P08254); experiment: Inhibition of human recombinant MMP3 using MOCAc-Lys-Pro-Leu-Gly-Leu-A2pr(Dnp)-Ala-Arg-N2 as substrate preincubated for 15 mins followed by substrate addition and measured after 120 mins by fluorescence based assay
Chain of Stromelysin-1 (P08254 whole entry): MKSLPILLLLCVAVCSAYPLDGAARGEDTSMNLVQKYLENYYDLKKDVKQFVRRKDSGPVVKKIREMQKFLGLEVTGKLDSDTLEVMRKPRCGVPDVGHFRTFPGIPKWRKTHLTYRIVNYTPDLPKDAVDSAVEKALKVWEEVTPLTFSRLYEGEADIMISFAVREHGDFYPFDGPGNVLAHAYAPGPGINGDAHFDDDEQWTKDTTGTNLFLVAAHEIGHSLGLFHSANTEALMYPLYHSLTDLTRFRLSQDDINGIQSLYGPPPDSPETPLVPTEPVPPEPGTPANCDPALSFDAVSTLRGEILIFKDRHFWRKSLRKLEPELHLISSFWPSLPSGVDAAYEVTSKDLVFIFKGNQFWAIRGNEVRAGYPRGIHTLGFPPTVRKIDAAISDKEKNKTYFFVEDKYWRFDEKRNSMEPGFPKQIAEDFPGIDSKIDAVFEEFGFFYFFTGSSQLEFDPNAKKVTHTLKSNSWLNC

[20] = Chemical stability of the compound in phosphate buffer at pH 9 assessed as residual rate incubated for 2 weeks by HPLC analysis; format: physicochemical; conditions: read-out: Stability
Homo sapiens [21] = organism: Homo sapiens; experiment: Selectivity ratio of Ki for recombinant human MMP12 to Ki for recombinant human MMP2

SMILES: CC(C)C[C@H](NC(=O)[C@@H]1C[C@H](N)CN1C(=O)CC[C@@H](NS(=O)(=O)c1ccc(NC(=O)c2ccc(C(N)=O)cc2)cc1)C(=O)O)C(=O)N(C)[C@@H](CCC(=O)O)C(=O)NCCCCC(N)=O
- Ratio Ki [1]: 56000
- Ratio Ki [2]: 3200
- Ki (Matrilysin): 150000 nM
- IC50 [3]: 250 nM
- Ratio Ki (Homo sapiens [4]): 140000
- remaining at 4 h [5]: 93.1%
- IC50 [6]: 0.22 nM
- IC50 (Neutrophil collagenase): 1800 nM
- T1/2 [7]: 4.42 h
- IC50 [8]: 0.034 nM
- Ki [9]: 0.034 nM
- IC50 (Interstitial collagenase): 270000 nM
- Ki [10]: 1900 nM
- Ki (Collagenase 3): 110 nM
- Ki [11]: 68 nM
- Ki [12]: 170 nM
- remaining at 336 h [13]: 99%
- remaining at 336 h [14]: 98.7%
- Ratio Ki [15]: 7.9e+06
- Ratio IC50 (Homo sapiens [16]): 1100
- Ratio Ki (Homo sapiens [17]): 53000
- Ratio IC50 [18]: 1100
- Ratio Ki [19]: 2000
- Ki (Stromelysin-1): 4900 nM
- remaining at 336 h [20]: 98.1%
- Ratio Ki (Homo sapiens [21]): 5000
